Results: article PMC8566451, “Lead optimization of novel quinolone chalcone compounds by a structure–activity relationship (SAR) study to increase efficacy and metabolic stability” (Scientific Reports, 2021)

What was measured:
HeLa cells = assay: Combination of CTR-21 with ABT-737, combinatorial index; type: cell-based, human
Procedure: (§1) (a) CTR-21 kills HeLa in a synergistic manner with ABT-737. Cells were treated with 0.78 nM CTR-21 and indicated concentrations of ABT-737. CI denotes combinatorial index, calculated according to described previously. (b) CTR-21 effectively kills paclitaxel-resistant cells when combined with paclitaxel. The paclitaxel-resistant MDA-MB-231TaxR cells were treated with 23 nM of CTR-21 and indicated concentrations of paclitaxel. TEXT PRINTED IN THE PICTURE: (a) Combo: HeLa: CI: 0.93 (ABT-737 (12.5 μM); CTR-21 (0.78 nM)); HeLa: CI: 0.94 (ABT-737 (6.25 μM); CTR-21 (0.78 nM)); HeLa: CI: 0.81 (ABT-737 (3.125 μM); CTR-21 (0.78 nM)); HeLa: CI: 0.48 (ABT-737 (1.5625 μM); CTR-21 (0.78 nM)) | (b) Combo: MDA-MB-231-TaxR: CI: 0.56 (Paclitaxel (75 nM); CTR-21 (23 nM)); MDA-MB-231-TaxR: CI: 0.38 (Paclitaxel (37.5 nM); CTR-21 (23 nM)); MDA-MB-231-TaxR: CI: 0.35 (Paclitaxel (18.75 nM); CTR-21 (23 nM)) DOUBTS OF THE COPYIST ABOUT THIS PICTURE: Each CI value is printed over a group of three bars (the two single agents and Combo). It is assigned here to the Combo, with the concentrations of the two agents given as conditions.

MDA-MB-231TaxR cells = assay: Combination of CTR-21 with paclitaxel, combinatorial index; type: cell-based, human; conditions: paclitaxel 18.75 nM + CTR-21 23 nM
Procedure: as §1

COc1ccccc1C(=O)/C=C/c1cc2cccc(OC)c2[nH]c1=O [CTR-21, (E)-8-methoxy-3-(3-(2-methoxyphenyl)-3-oxoprop-1-enyl) quinolin-2(1H)-one]
CI (combinatorial index) (HeLa cells; ABT-737 1.5625 μM + CTR-21 0.78 nM): 0.48
combination index (CI) (HeLa cells; CTR-21 0.78 nM with low doses of ABT-737): less than 1.0
CI (combinatorial index) (MDA-MB-231TaxR cells): 0.35
